In US20150174144A1, “TETRACYCLINE COMPOUNDS FOR TREATING NEURODEGENERATIVE DISORDERS” (PARATEK PHARMACEUTICALS, INC., priority 2012, published 2015):
≈ marks a conversion by molar mass, not a printed value. Where “and” joins values, the source holds several entries; their conditions need not be identical. Identical values can stand only once. Like-named read-outs stand apart in the source and are kept apart here.

Experiments:
[1] = test system: cerebellar granule neurons; assay: Glutamate-induced neurodegeneration in cerebellar granule neurons (MTT); type: cell-based, C57BL/6 mouse; settings: Mus musculus, Neuron
Excerpt: The method for isolation of cerebellar granule neurons has been previously described in published studies. Neonate C57BL/6 mouse pups, 7-8 days old, are obtained. Heads are removed and rinsed in 70% alcohol and transfered to an 85 mm dish filled with PBS on ice. Heads are cut, the brains removed, and the cerebella dissected and placed in a 50 mm dish with PBS on ice. The meninges, choroids plexus and blood vessels are removed from the cerebellum and the cleaned organ is transferred to a 35 mm dish with Hank's buffered salt solution (HBSS) containing Ca^2+ and Mg^2+. Each cerebellum is cut into pieces and incubated with trypsin solution at 37° C. for 10 minutes, after which 0.5 mg/ml (final concentration) trypsin inhibitor and 0.1 mg/ml (final concentration) DNAse are added. After centrifugation, cerebellar fragments are resuspended in dissociation medium (HBSS with Ca^2+, Mg^2+, trypsin inhibitor, DNAse) and a single cell suspension generated by agitation with a Pasteur pipette. After the coarse debris settles, the supernatant (cell suspension) is passed through a cell strainer (40 μm, Becton Dickinson #1942501) into a 50 ml sterile tube and the cells centrifuged. Cells are washed and re-suspended in culture medium (BME Basal Medium containing 10% fetal bovine serum, 100 IU/ml penicillin/streptomycin, 10 mM HEPES, 25 mM KCl, 2 mM L-glutamine).
The cell suspension is transferred to poly-D-lysine-coated dishes and incubated for 25 min at 37° C. in 5% CO2. After incubation, the non-adherent cells are removed and counted with a hemocytometer. A suspension of 0.9×10^6 cells/ml is prepared in culture medium, and 100 μL volumes are added per well (250,000 cells/cm^2) in poly-D-Lysine coated 96-well plates. One day after plating, cytosine arabinoside (AraC) is added to a final concentration of 10 μM. After 6-8 days of in vitro culture, the neurons are ready to be used in the assay.
To test the activity of Compound 1 and minocycline, compounds were added to the neuron cultures at varying concentrations. Buffer was added to some cells as a negative control. After pre-incubation with compound for 30 minutes at 5% CO2, 37° C., glutamate was added at a final concentration of […] and the cells further incubated for 1 hour. Glutamate was not added to some cells as a positive control for cell survival. After the 1 hr period, cells were washed once with culture medium and 100 μL of fresh medium were added per well. Compounds were re-added to the cells and the cultures were incubated overnight at 5% CO2, 37° C. […] Spectrophotometric absorbance at wavelength 570 nm was measured using a microplate reader.
The MTT absorbance for non-stimulated cells was considered the 100% survival level.

[2] = test system: animal models of MS and neuroprotection; assay: Accepted animal models of MS and neuroprotection (Table 2); design: concentration or dose not given beside the values; settings: in vivo
E. coli = assay: Antibacterial activity, E. coli MIC; type: cell-based; settings: Escherichia coli; Table 8
in vivo = settings: for Kp at 0.5 hr / Kp at 1 hr / Kp at 2 hr / Kp at 4 hr / concentration at 0.5 hr / concentration at 1 hr / concentration at 2 hr / concentration at 4 hr: ip, 10 mg/kg
Experimental: Compounds were administered via the indicated routes and blood samples were removed at various times up to 24 hr. Concentration of compound was determined by LC/MS.

[3] = test system: LPS-induced production of NO by J774A.1 macrophages; assay: NO production assay, LPS-activated J774A.1 macrophages; type: cell-based; settings: Mus musculus, J774.A1; 10 ng/ml LPS, 20 hr
Experimental: The J774A.1 mouse macrophage cell line was grown to confluence in DMEM medium containing 10% fetal bovine serum (FBS). Cells were harvested into single-cell suspensions (by incubation on ice and agitation), seeded into 96-well plates at 1×10^5 cells/well (200 μL volume) and incubated (5% CO2, 37° C.) overnight. Compounds were added to the cells at final concentrations ranging from 50 to 1 μM and pre-incubated for 1 hr. Lipopolysaccharide (LPS) was added to the cells at a final concentration of 10 ng/ml. After incubation for 20 hr, culture supernatants were harvested and transferred to a new 96-well plate. Levels of LPS-induced NO in the supernatants were quantified by Greiss reagent (Active Motif) with supernatants from unstimulated cells serving as a negative control.

[4] = Table 4, unit inferred, read-out: Neuroprotection (mouse CGN)
[5] = concentration at which 50% of the maximum response is observed, read-out: EC50, survival of glutamate-stimulated cerebellar granule neurons

SMILES	EC50 [1, 4] [nM]	EC50 [1, 5] [nM]	% Inhibition Axon Loss [2] [%]	% Inhibition Clinical Score [2] [%]	% Inhibition Demyelination [2] [%]	% Inhibition Inflammation [2] [%]	MIC (E. coli) [µg/mL]	AUC (in vivo; monkey, iv, 5 mg/kg) [µM·h]	Cmax (in vivo; monkey, iv, 5 mg/kg) [µM]	half-life (in vivo; monkey, iv, 5 mg/kg) [min]	AUC (in vivo; monkey, po, 5 mg/kg) [µM·h]	Cmax (in vivo; monkey, po, 5 mg/kg) [µM]	Tmax (in vivo; monkey, po, 5 mg/kg) [h]	bioavailability (in vivo; monkey, po, 5 mg/kg) [%]	AUC (in vivo; rat, po, 5 mg/kg) [µM·h]	Cmax (in vivo; rat, po, 5 mg/kg) [µM]	Tmax (in vivo; rat, po, 5 mg/kg) [h]	bioavailability (in vivo; rat, po, 5 mg/kg) [%]	IC50 [3] [µM]	further results
CCc1cc(N(C)C)c2c(c1O)C(=O)C1=C(O)[C@]3(O)C(=O)C(C(N)=O)=C(O)[C@@H](N(C)C)[C@@H]3C[C@@H]1C2 [Compound 1]	2600 ± 900	2600	70	65	69	74	> 64	70	28.5	342	46.7	8.6	3	66.9	14.3	1.25	2	26	30	Kp at 0.5 hr (in vivo; mouse, in vivo): 0.179; Kp at 1 hr (in vivo; mouse, in vivo): 0.284; Kp at 2 hr (in vivo; mouse, in vivo): 0.568; Kp at 4 hr (in vivo; mouse, in vivo): 1.17; concentration at 0.5 hr (in vivo; mouse, in vivo): 6860 ng/mL and 1230 ng/g; concentration at 1 hr (in vivo; mouse, in vivo): 6360 ng/mL and 1810 ng/g; concentration at 2 hr (in vivo; mouse, in vivo): 7020 ng/mL and 3990 ng/g; concentration at 4 hr (in vivo; mouse, in vivo): 3680 ng/mL and 4310 ng/g; half-life (in vivo; rat): 210 min; AUC (in vivo; rat, iv, 5 mg/kg): 54.4 µM·h; Cmax (in vivo; rat, iv, 5 mg/kg): 27.9 µM
CN(C)c1ccc(O)c2c1C[C@H]1C[C@H]3[C@H](N(C)C)C(O)=C(C(N)=O)C(=O)[C@@]3(O)C(O)=C1C2=O [Minocycline, minocycline, reference compound]	1400 ± 100	1400	38	40	34	43	1 (≈ 2.19 µM)	55.8	29.9	624	44.6	4.4	3	80.1	3.6	0.4	1.7	30.7	46 ± 2.1	concentration at 0.5 hr (in vivo; brain): 138 ng/g; concentration at 1 hr (in vivo; brain): 380 ng/g; concentration at 2 hr (in vivo; brain): 317 ng/g; concentration at 4 hr (in vivo; brain): 327 ng/g; Kp at 0.5 hr (in vivo; brain/plasma): 0.095; Kp at 1 hr (in vivo; brain/plasma): 0.253; Kp at 2 hr (in vivo; brain/plasma): 0.508; Kp at 4 hr (in vivo; brain/plasma): 0.688; concentration at 0.5 hr (in vivo; plasma): 1450 ng/mL; concentration at 1 hr (in vivo; plasma): 1500 ng/mL; concentration at 2 hr (in vivo; plasma): 623 ng/mL; concentration at 4 hr (in vivo; plasma): 475 ng/mL; AUC (in vivo; rat, iv, 1 mg/kg): 2.4 µM·h; Cmax (in vivo; rat, iv, 1 mg/kg): 0.93 µM; half-life (in vivo; rat, iv, 1 mg/kg): 216 min
